In this test the target is T1, recombinant human NaV1.8 stably transfected HEK cells (Homo sapiens, UniProt Q9Y5Y9).
T1 construct: expressed in transfected cells; host or cells: HEK cells, stably transfected
The test can be described thus: Compound profiling on NaV1.8, human NaV1.8 cell line, SyncroPatch384PE automated patch clamp assay (Example 102, first set of compounds, Table 16). It counts as cell-based. Conditions: human NaV1.8 HEK cells, Table 16 (first set of compounds). How it is done: Compound Profiling on NaV1.8—Human NaV1.8 Cell Line—SyncroPatch384PE Assay
Compounds were tested on recombinant human NaV1.8 stably transfected HEK cells using the SyncroPatch384PE system, an automated patch clamp device. Cells were cultured at 37° C./5% CO2 in DMEM medium supplemented with GlutaMAX I, NEAA 1%, FBS 10% and seeded in T175 flasks. Cells were cultured at 30° C. one day prior to recording sodium currents. On the day of the recordings, cells were detached with 0.05% Trypsin-EDTA, resuspended in serum free DMEM medium and placed into the SyncroPatch384PE 6° C. pre-cooled cell hotel and shaken at 200 rpm. Intracellular solution (IC) contained, in mM: 10, CsCl; 110, CsF; 20, EGTA; 10, HEPES. Extracellular solution (EC) contained, in mM: 140, NaCl; 4, KCl; 5, Glucose; 10, HEPES; 2, CaCl2; 1, MgCl2. Washing solution contained, in mM: 40, NMDG; 100, NaCl; 4, KCl; 10, Glucose; 10, HEPES; 5, CaCl2; 1, MgCl2.
Compounds were tested in triplicate in 0.1% DMSO and 0.030% Pluronic Acid. Compounds were diluted 1:3 in EC solution to create a 10-point concentration response curve, spanning a final concentration range from 20-0.001 μM in the assay plate. Each plate contained tetracaine and another tool compound as positive controls. Up to 8 compounds were tested on one plate. 250 μM tetracaine and 0.1% DMSO were used as high and low controls, respectively. Whole cell patch clamp recordings were conducted according to Nanion's standard procedure for SyncroPatch384PE®. Cells were held at a holding potential of −120 mV. A depolarization step to 10 mV for 30 ms was applied (P1 measurement), followed by a hyperpolarization step to −100 mV for 100 ms. An inactivation step at −40 mV for 10 sec was applied before stepping to −100 mV for 20 ms, followed by a step to 10 mV for 30 ms (P2 measurement) and then back to −100 mV for 30 ms. Sweep interval was 15 sec with a sampling rate of 10 kHz. Following establishment of the whole-cell configuration in EC, two washing steps with reference buffer were performed to stabilize the baseline. Compounds were then applied by the SynchroPatch into each well and the current was recorded for five minutes in EC, followed by application of tetracaine to achieve full block at the end of the experiment. The potency of the compounds was assessed on two read-outs, resting state block (P1 measurement) or inactivated state block (P2 measurement) to obtain IC50 values. Values were normalized to high (tetracaine) and low (DMSO) controls. The IC50 values are listed in Table 16 as follows: “A” represents an IC50 less than or equal to 20 nM, “B” represents an IC50 greater than 20 nM to less than or equal to 40 nM, “C” represents an IC50 greater than 40 nM to less than or equal to 200 nM, “D” represents an IC50 greater than 200 nM to less than or equal to 500 nM.
In general terms: In patch-clamp work, channel activity is measured electrically.

Where [1] appears, read: inactivated state block (P2 measurement), read-out: P2IC50.
The mark [2] stands for this setting: resting state block (P1 measurement), read-out: P1IC50.

Read-outs that look alike come from different tables or passages of the source. Where only a bound is given, the exact number is not on record here.

T1 sequence (Q9Y5Y9 whole entry): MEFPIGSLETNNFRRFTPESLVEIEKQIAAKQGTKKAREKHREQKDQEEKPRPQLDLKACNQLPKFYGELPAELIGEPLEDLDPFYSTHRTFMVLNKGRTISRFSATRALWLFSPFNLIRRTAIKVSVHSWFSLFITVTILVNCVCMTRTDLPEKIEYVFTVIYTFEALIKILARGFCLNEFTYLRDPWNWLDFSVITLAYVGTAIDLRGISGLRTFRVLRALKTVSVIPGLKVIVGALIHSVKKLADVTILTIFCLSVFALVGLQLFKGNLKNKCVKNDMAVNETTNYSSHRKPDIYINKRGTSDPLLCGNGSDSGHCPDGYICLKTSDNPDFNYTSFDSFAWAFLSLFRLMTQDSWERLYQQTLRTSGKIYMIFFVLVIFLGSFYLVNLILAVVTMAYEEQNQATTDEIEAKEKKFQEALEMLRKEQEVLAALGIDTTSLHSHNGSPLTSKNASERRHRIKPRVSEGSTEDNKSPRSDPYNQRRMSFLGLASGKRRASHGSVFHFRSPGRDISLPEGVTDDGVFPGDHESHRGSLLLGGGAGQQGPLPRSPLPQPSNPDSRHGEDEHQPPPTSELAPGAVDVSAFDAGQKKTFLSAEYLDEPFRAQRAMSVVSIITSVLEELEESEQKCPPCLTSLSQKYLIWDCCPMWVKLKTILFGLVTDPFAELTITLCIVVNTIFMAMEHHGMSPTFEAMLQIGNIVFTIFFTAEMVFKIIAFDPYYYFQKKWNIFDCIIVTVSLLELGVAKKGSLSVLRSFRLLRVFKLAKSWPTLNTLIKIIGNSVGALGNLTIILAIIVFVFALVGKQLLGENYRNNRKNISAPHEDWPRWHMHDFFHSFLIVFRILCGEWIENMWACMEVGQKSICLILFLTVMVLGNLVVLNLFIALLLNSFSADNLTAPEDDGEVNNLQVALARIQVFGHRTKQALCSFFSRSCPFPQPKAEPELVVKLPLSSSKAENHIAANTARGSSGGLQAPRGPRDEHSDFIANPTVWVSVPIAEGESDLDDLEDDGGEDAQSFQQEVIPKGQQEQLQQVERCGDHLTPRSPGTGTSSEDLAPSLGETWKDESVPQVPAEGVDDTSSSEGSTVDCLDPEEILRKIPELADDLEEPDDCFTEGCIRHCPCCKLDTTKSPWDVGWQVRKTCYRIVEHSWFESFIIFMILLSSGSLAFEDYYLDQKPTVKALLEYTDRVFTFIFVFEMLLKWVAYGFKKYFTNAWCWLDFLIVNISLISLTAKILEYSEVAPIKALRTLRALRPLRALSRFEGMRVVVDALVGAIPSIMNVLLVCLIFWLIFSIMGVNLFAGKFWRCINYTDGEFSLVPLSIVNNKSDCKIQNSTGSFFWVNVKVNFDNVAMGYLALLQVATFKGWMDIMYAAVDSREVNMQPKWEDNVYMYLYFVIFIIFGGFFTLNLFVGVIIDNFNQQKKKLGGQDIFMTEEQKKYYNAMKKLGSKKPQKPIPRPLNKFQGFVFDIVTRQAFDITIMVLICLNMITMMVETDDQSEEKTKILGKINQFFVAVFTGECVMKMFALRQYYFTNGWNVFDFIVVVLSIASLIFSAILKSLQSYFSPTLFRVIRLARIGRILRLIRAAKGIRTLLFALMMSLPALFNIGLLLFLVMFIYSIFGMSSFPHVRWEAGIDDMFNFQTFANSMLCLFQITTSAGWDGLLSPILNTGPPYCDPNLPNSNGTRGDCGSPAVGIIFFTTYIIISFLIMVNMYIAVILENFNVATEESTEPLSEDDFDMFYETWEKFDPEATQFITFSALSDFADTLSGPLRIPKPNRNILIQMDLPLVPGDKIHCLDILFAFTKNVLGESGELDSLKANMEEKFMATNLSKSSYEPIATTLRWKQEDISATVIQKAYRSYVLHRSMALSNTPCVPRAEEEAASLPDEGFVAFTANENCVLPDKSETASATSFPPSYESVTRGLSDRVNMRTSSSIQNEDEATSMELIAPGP

As for `CS(=N)(=O)c1cccc(NC(=O)c2cc(C(F)(F)F)cnc2OCC23CC(C#N)(C2)C3)c1` (stereo not shown) [Compound 1631], the IC50 reads like this: under setting [1], 0.2 to 0.5 µM; under setting [2], 0.2 to 0.5 µM.

As for `COc1ccc(-c2nnc(Oc3ccc(C#N)cc3OC)c(C(=O)Nc3cccc(S(C)(=N)=O)c3)c2C)cc1` (stereo not shown) [Compound 1454, 3-(4-cyano-2-methoxy-phenoxy)-6-(4-methoxyphenyl)-5-methyl-N-[3-(methylsulfonimidoyl)phenyl]pyridazine-4-carboxamide], the IC50 reads like this: under setting [1], no more than 0.02 µM; under setting [2], no more than 0.02 µM. Consider `CS(=N)(=O)c1cccc(NC(=O)c2cc(C(F)(F)F)cnc2Oc2ccc(C(F)F)nc2)c1` (stereo not shown) [Compound 1674], for which the IC50 lay within 0.2 to 0.5 µM under setting [1] and 0.2 to 0.5 µM under setting [2]. `Cc1ccc(Oc2nnc(C(F)(F)F)c(C)c2C(=O)Nc2cccc(S(C)(=O)=O)c2)c(C)n1` [Compound 1420]: the IC50 runs as follows: under setting [1], 0.2 to 0.5 µM; under setting [2], 0.2 to 0.5 µM. `CS(=O)(=O)c1cccc(NC(=O)c2cc(C(F)(F)F)cnc2Oc2cc(OC(F)(F)F)ccc2F)c1` [Compound 1658]: the IC50 is, setting by setting: under setting [1], 0.04 to 0.2 µM; under setting [2], 0.2 to 0.5 µM. Consider `COCCNC(=O)c1cccc(NC(=O)c2c(Oc3ccc(C#N)cc3OC)nnc(C(F)(F)F)c2C)c1` [Compound 1443, 3-(4-cyano-2-methoxy-phenoxy)-N-[3-(2-methoxyethylcarbamoyl)phenyl]-5-methyl-6-(trifluoromethyl)pyridazine-4-carboxamide], for which the IC50 fell in the range of 0.2 to 0.5 µM under setting [1] and 0.2 to 0.5 µM under setting [2]. Consider `COc1cc(Cl)ccc1Oc1nnc(C(F)(F)F)c(C)c1C(=O)Nc1cccc(S(C)(=N)=O)c1` (single isomer, unassigned) [Compound 1482, 3-(4-chloro-2-methoxyphenoxy)-5-methyl-N-(3-(S-methylsulfonimidoyl)phenyl)-6-(trifluoromethyl)pyridazine-4-carboxamide], for which the IC50 under setting [2] is no more than 0.02 µM. On to `CSc1cccc(NC(=O)c2cc(Br)cnc2Oc2ccc(F)cc2C)c1` [Compound 1577], for which the IC50 is, setting by setting: under setting [1], 0.2 to 0.5 µM; under setting [2], 0.2 to 0.5 µM. As to `COc1ccc(Oc2ncc(C(F)(F)F)cc2C(=O)Nc2cccc(S(C)(=N)=O)c2)cc1C#N` (stereo not shown) [Compound 1591], the IC50 lay in the range of 0.2 to 0.5 µM under setting [1] and 0.2 to 0.5 µM under setting [2].

As for `COc1cc(C#N)ccc1Oc1nnc(-c2ccccn2)c(C)c1C(=O)Nc1cccc(S(C)(=N)=O)c1` (stereo not shown) [Compound 1458, 3-(4-cyano-2-methoxyphenoxy)-5-methyl-N-(3-(S-methylsulfonimidoyl)phenyl)-6-(pyridin-2-yl)pyridazine-4-carboxamide], the IC50 under setting [1] was in the range of 0.2 to 0.5 µM and the IC50 under setting [2] lay within 0.2 to 0.5 µM. On to `COc1c(Oc2ncc(C#N)cc2C(=O)Nc2cccc(C(N)=O)c2)ccc(F)c1F` [Compound 1724, N-(3-carbamoylphenyl)-5-cyano-2-(3,4-difluoro-2-methoxy-phenoxy)pyridine-3-carboxamide], for which the IC50 lay within 0.04 to 0.2 µM under setting [1] and 0.04 to 0.2 µM under setting [2]. Take `COc1cc(C#N)ccc1Oc1nnc(-c2nccs2)c(C)c1C(=O)Nc1cccc(S(C)(=N)=O)c1` (stereo not shown) [Compound 1463, 3-(4-cyano-2-methoxy-phenoxy)-5-methyl-N-[3-(methylsulfonimidoyl)phenyl]-6-thiazol-2-yl-pyridazine-4-carboxamide]: the IC50 is no more than 0.02 µM under setting [1] and no more than 0.02 µM under setting [2].

As to `COc1cc(C#N)ccc1Oc1ncc(C(F)(F)F)cc1C(=O)NC12CC(C(N)=O)(C1)C2` [Compound 1721, N-(3-carbamoyl-1-bicyclo[1.1.1]pentanyl)-2-(4-cyano-2-methoxy-phenoxy)-5-(trifluoromethyl)pyridine-3-carboxamide], the IC50 is 0.2 to 0.5 µM under setting [1] and 0.2 to 0.5 µM under setting [2].

As to `Cc1cc(C#N)ccc1Oc1nnc(C(F)(F)F)c(C)c1C(=O)Nc1cccc([S@@](C)(=N)=O)c1` [Compound 1525, 3-(4-cyano-2-methylphenoxy)-N-{3-[(S)-imino(methyl)oxo-λ^6-sulfanyl]phenyl}-5-methyl-6-(trifluoromethyl)pyridazine-4-carboxamide], the IC50 reads like this: under setting [1], no more than 0.02 µM; under setting [2], no more than 0.02 µM. On to `COc1cc(C#N)ccc1Oc1nnc(C(F)(F)F)c(C)c1C(=O)Nc1cccc(C(=O)NCCO)c1` [Compound 1441, 3-(4-cyano-2-methoxy-phenoxy)-N-[3-(2-hydroxyethylcarbamoyl)phenyl]-5-methyl-6-(trifluoromethyl)pyridazine-4-carboxamide], for which the IC50 runs as follows: under setting [1], 0.2 to 0.5 µM; under setting [2], 0.2 to 0.5 µM.

Take `Cc1c(C(F)(F)F)nnc(Oc2ccc(OC(C)C)c(F)c2F)c1C(=O)Nc1cccc(C(N)=O)c1` [Compound 1409]: the IC50 is no more than 0.02 µM under setting [1] and no more than 0.02 µM under setting [2]. As to `COc1nc(Br)ccc1Oc1ncc(C(F)(F)F)cc1C(=O)Nc1cccc(S(C)(=N)=O)c1` (stereo not shown) [Compound 1685], the IC50 reads like this: under setting [1], no more than 0.02 µM; under setting [2], no more than 0.02 µM.

With `CC(C)Oc1ccc(Oc2ncc(C(F)(F)F)cc2C(=O)Nc2cccc(C(N)=O)c2)c(F)c1` [Compound 1708], the IC50 by setting is: under setting [1], 0.2 to 0.5 µM; under setting [2], 0.2 to 0.5 µM. Regarding `COc1cc(C#N)ccc1Oc1nnc(-c2cccc(C#N)c2)c(C)c1C(=O)Nc1cccc(S(C)(=N)=O)c1` (stereo not shown) [Compound 1451, 3-(4-cyano-2-methoxy-phenoxy)-6-(3-cyanophenyl)-5-methyl-N-[3-(methylsulfonimidoyl)phenyl]pyridazine-4-carboxamide], the IC50 runs as follows: under setting [1], 0.2 to 0.5 µM; under setting [2], 0.2 to 0.5 µM.

Take `COc1cc(F)c(Oc2ncc(C(F)(F)F)cc2C(=O)Nc2cccc(C(N)=O)c2)cc1F` [Compound 1638]: the IC50 under setting [1] was in the range of 0.2 to 0.5 µM and the IC50 under setting [2] lay in the range of 0.2 to 0.5 µM.

For the compound `COc1ccc(Oc2nnc(C(F)(F)F)c(C)c2C(=O)Nc2cccc(S(C)(=O)=O)c2)c(C)c1F` [Compound 1427], the IC50 was no more than 0.02 µM under setting [1] and no more than 0.02 µM under setting [2]. In the case of `COc1cc(C#N)ccc1Oc1nnc(C(F)(F)F)c(C)c1C(=O)Nc1ccc(OC)c(C(N)=O)c1` [Compound 1541, N-(3-carbamoyl-4-methoxy-phenyl)-3-(4-cyano-2-methoxy-phenoxy)-5-methyl-6-(trifluoromethyl)pyridazine-4-carboxamide], the IC50 under setting [1] is 0.2 to 0.5 µM and the IC50 under setting [2] was in the range of 0.2 to 0.5 µM. Turning to `COc1cc(C#N)ccc1Oc1nnc(C2=CCN(C)CC2)c(C)c1C(=O)Nc1cccc(S(C)(=N)=O)c1` (stereo not shown) [Compound 1555, 3-(4-cyano-2-methoxy-phenoxy)-5-methyl-6-(1-methyl-3,6-dihydro-2H-pyridin-4-yl)-N-[3-(methylsulfonimidoyl)phenyl]pyridazine-4-carboxamide], the IC50 runs as follows: under setting [1], 0.2 to 0.5 µM; under setting [2], 0.2 to 0.5 µM. With `CS(=N)(=O)c1cccc(NC(=O)c2cc(C(F)(F)F)cnc2Oc2cccnc2OC(F)(F)F)c1` (single isomer, unassigned) [Compound 1643], the IC50 under setting [2] was no more than 0.02 µM.

In the case of `COCCNS(=O)(=O)c1cccc(NC(=O)c2c(Oc3ccc(C#N)cc3OC)nnc(C(F)(F)F)c2C)c1` [Compound 1439, 3-(4-cyano-2-methoxy-phenoxy)-N-[3-(2-methoxyethylsulfamoyl)phenyl]-5-methyl-6-(trifluoromethyl)pyridazine-4-carboxamide], the IC50 by setting is: under setting [1], 0.04 to 0.2 µM; under setting [2], 0.04 to 0.2 µM. For the compound `N#CC1CC(Oc2ncc(C(F)(F)F)cc2C(=O)Nc2ccc(C(N)=O)cc2)C1` (mixture of isomers) [Compound 1671], the IC50 runs as follows: under setting [1], 0.2 to 0.5 µM; under setting [2], 0.2 to 0.5 µM.

Regarding `CC(=O)N=[S@](C)(=O)c1cccc(NC(=O)c2cc(C(F)(F)F)cnc2Oc2ccc(F)cc2C)c1` [Compound 1716, N-[3-(N-acetyl-S-methyl-sulfonimidoyl)phenyl]-2-(4-fluoro-2-methyl-phenoxy)-5-(trifluoromethyl)pyridine-3-carboxamide], the IC50 reads like this: under setting [1], no more than 0.02 µM; under setting [2], no more than 0.02 µM.
